Data from patent US9492447B2, “Cannabinoid receptor modulators” (Arena Pharmaceuticals, Inc., priority 2011, dated 2016).

Columns and labels:
Type in all cases: in vivo, rat
[1] = test system: MIA model of osteoarthritis in rats; assay: Monosodium iodoacetate (MIA) model of osteoarthritis pain; settings: 3, 10 and 30 mg/kg orally; one hour after dosing; FIG. 2
Text: Injection of monosodium iodoacetate (MIA) into a joint (Kalbhen, 1987) inhibits the activity of glyceraldehyde-3-phosphate dehydrogenase in chondrocytes, resulting in disruption of glycolysis and eventually in cell death. The progressive loss of chondrocytes results in histological and morphological changes of the articular cartilage, closely resembling those seen in osteoarthritis patients.
The osteoarthritis was induced in 200 g male Sprague Dawley rats. […]
Typically during disease progression, there was an inflammation period of 0-7 days post-intra-articular injection followed by progressive degeneration of the cartilage and subchondral bone from days 14-55. […] Tactile allodynia was measured via von Frey assay, hind limb paw weight distribution was monitored using an incapacitence tester (Columbus Instruments, Columbus, Ohio, USA) and hind limb grip strength was measured using a grip strength meter (Columbus Instruments, Columbus, Ohio, USA). […] Hind paw weight distribution was determined by placing rats in a chamber so that each hind paw rests on a separate force plate of the incapacitence tester. The force exerted by each hind limb (measured in grams) is averaged over a 3 second period. Three measurements were taken for each rat, and the change in hind paw weight distribution calculated. […]

[2] = test system: paclitaxel-induced allodynia in Sprague Dawley rats; assay: Paclitaxel-induced allodynia; settings: 10 mg/kg orally
Protocol: Therapy however is often associated with the unwanted side affects of painful peripheral neuropathy.
Male Sprague Dawley rats [200-250 g](Harlan Laboratories Inc., Livermore, Calif.) were housed three per cage and maintained in a humidity-controlled (40-60%) and temperature-controlled (68-72° F.) facility on a 12 h: 12 h light/dark cycle (lights on at 6:30 am) with free access to food (Harlan Teklad, Orange, Calif., Rodent Diet 8604) and water. Rats were allowed one week of habituation to the animal facility before starting treatment.
Rats were treated intraperitoneally, with 2 mg/kg of paclitaxel (Sigma Aldrich, Saint Louis, Mo.) in 10% Cremophor vehicle (500 μL) on days 0, 2, 4, and 6.
Tactile allodynia was tested using von Frey filaments. Briefly, the von Frey assay was performed using the standardized up down method with von Frey filaments, that determine the tactile sensitivity of the paw. By applying the increasingly or decreasingly thicker filaments to the paw in a logarithmic scale of actual force, a linear scale of perceived intensity is determined.
Eight days after the start of paclitaxel dosing, a baseline measurement (von Frey assay) was performed prior to dosing of compounds. […] As a positive control, rats were dosed intraperitoneally with 100 mg/kg gabapentin in water. The dosing volume for oral and peritoneal treatment was 500 μL. […]

[3] = test system: FCA-induced hyperalgesia in rats; assay: FCA-induced hyperalgesia model of inflammatory pain; settings: 0.1, 1, 3, 10 and 30 mg/kg orally; 1 h post dosing; Analgesy-Meter; FIG. 1
Protocol: Male Sprague Dawley rats from Harlan (200-225 g when received) were used. Upon arrival, rats were housed 4 per cage in shoe-box polycarbonate cages with wire tops, wood chip bedding and suspended food and water bottles. Animals were acclimated for 5-7 days prior to being injected with Freund's complete adjuvant (FCA) (Sigma; catalog #5881).
2 days (48 h) before testing compounds, baseline readings of all rats were taken right before FCA injection. Rats were then injected with 50 μL FCA containing 1 mg/mL Mtb (Mycobacterium tuberculosis) in right hind footpad under inhalation anesthesia (isoflurane). 48 hours after FCA injection, readings were taken as pre-dosing baseline and then rats were dosed orally with 0.5 mL of vehicle or compound (0.5 mL per 250 g rat). Readings were taken again at 1 h post dosing. All readings were taken with an Analgesy-Meter (Ugo Basile) which measures mechanical hyperalgesia via paw pressure.
FCA-induced hyperalgesia was tested with an Analgesy-Meter. Briefly, the Analgesy Meter applied an increasing pressure to the right hind paw. The paw withdrawal threshold was the pressure leading to withdrawal.
Meanwhile a group of rats were dosed orally with 50 mg/kg of Diclofenac as a positive control. Readings were taken again at 1 h post dosing. Dosing volume was 500 μL per 250 g rat.

CC(C)(CO)NC(=O)c1nn(-c2ccc(F)cc2F)c2c1C[C@H]1C[C@@H]21 [Compound 493, (1aR,5aR)-2-(2,4-Difluoro-phenyl)-1a,2,5,5a-tetrahydro-1H-2,3-diaza-cyclopropa[a]pentalene-4-carboxylic Acid (2-Hydroxy-1,1-dimethyl-ethyl)-amide]
Increase in paw withdrawal threshold (PWT) in comparison with vehicle [1]: exhibiting therapeutic efficacy
time of maximum efficacy post-dosing ([2]; time course): 1 h
increase in paw withdrawal threshold (PWT) in comparison with vehicle and gabapentin ([2]; von Frey 30, 60 and 180 minutes after dosing, FIG. 3): exhibiting therapeutic efficacy
increase in paw withdrawal threshold (PWT) in comparison with the vehicle [3]: exhibited therapeutic efficacy
